Laboratory results taken from PubChem BioAssay (NCI).
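Step 1: Grow cells in 96-well plates. Step 2: Expose to compound for 48 hours at 5 concentrations. Step 3: Interpolate endpoints linearly; if unreached, use highest concentration. TGI denotes the concentration required for complete inhibition of growth.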

Columns and labels:
Experiment in all cases: inhibition of tumour cell growth, NCI panel, 48 h
SF-268 CNS = system: SF-268 CNS
CCRF-CEM leukemia = system: CCRF-CEM leukemia
HOP-92 NSCLC = system: HOP-92 NSCLC
OVCAR-5 ovarian = system: OVCAR-5 ovarian
SK-OV-3 ovarian = system: SK-OV-3 ovarian
M14 melanoma = system: M14 melanoma
NCI-H23 lung = system: NCI-H23 lung
MALME-3M melanoma = system: MALME-3M melanoma
RPMI-8226 leukemia = system: RPMI-8226 leukemia
EKVX NSCLC = system: EKVX NSCLC
SNB-19 CNS = system: SNB-19 CNS
SK-MEL-2 melanoma = system: SK-MEL-2 melanoma
HOP-62 NSCLC = system: HOP-62 NSCLC
UACC-62 melanoma = system: UACC-62 melanoma
A498 renal = system: A498 renal
K-562 leukemia = system: K-562 leukemia
KM20L2 colon = system: KM20L2 colon
OVCAR-8 ovarian = system: OVCAR-8 ovarian
DMS 114 small cell lung = system: DMS 114 small cell lung
RXF 393 renal = system: RXF 393 renal

COC(=O)Cc1c(C2C(CC(=O)OC)c3ccccc3N2C2OC(CO)C(O)C(O)C2O)[nH]c2ccccc12 (configuration not stated)
TGI (SF-268 CNS): > 100 µM
TGI (CCRF-CEM leukemia): > 100 µM
TGI (HOP-92 NSCLC): > 100 µM
TGI (OVCAR-5 ovarian): > 100 µM
TGI (SK-OV-3 ovarian): > 100 µM
TGI (M14 melanoma): > 100 µM
TGI (NCI-H23 lung): > 100 µM
TGI (MALME-3M melanoma): > 100 µM
TGI (RPMI-8226 leukemia): > 100 µM
TGI (EKVX NSCLC): > 100 µM
TGI (SNB-19 CNS): > 100 µM
TGI (SK-MEL-2 melanoma): > 100 µM
TGI (HOP-62 NSCLC): > 100 µM
TGI (UACC-62 melanoma): > 100 µM
TGI (A498 renal): > 100 µM

CC(C)(C)CI
TGI (SF-268 CNS): > 100 µM
TGI (K-562 leukemia): 58.4 µM
TGI (KM20L2 colon): > 100 µM
TGI (CCRF-CEM leukemia): 50.8 µM
TGI (HOP-92 NSCLC): 61.4 µM
TGI (OVCAR-5 ovarian): > 100 µM
TGI (SK-OV-3 ovarian): > 100 µM
TGI (M14 melanoma): 71.3 µM
TGI (OVCAR-8 ovarian): > 10 µM
TGI (NCI-H23 lung): > 100 µM
TGI (MALME-3M melanoma): 46.6 µM
TGI (EKVX NSCLC): > 100 µM
TGI (SNB-19 CNS): 89.1 µM
TGI (SK-MEL-2 melanoma): 37.6 µM
TGI (DMS 114 small cell lung): 48.3 µM
TGI (UACC-62 melanoma): > 100 µM
TGI (RXF 393 renal): 33.7 µM
TGI (A498 renal): > 100 µM

COc1ccc(-c2c3c(nc4nc(SCC(=O)c5ccc(Br)cc5)nc(N)c24)CCCC3)cc1OC
TGI (SF-268 CNS): > 100 µM
TGI (K-562 leukemia): > 100 µM
TGI (CCRF-CEM leukemia): > 100 µM
TGI (OVCAR-5 ovarian): > 100 µM
TGI (SK-OV-3 ovarian): > 100 µM
TGI (M14 melanoma): > 100 µM
TGI (OVCAR-8 ovarian): > 100 µM
TGI (NCI-H23 lung): > 100 µM
TGI (MALME-3M melanoma): > 100 µM
TGI (RPMI-8226 leukemia): > 100 µM
TGI (EKVX NSCLC): > 100 µM
TGI (SNB-19 CNS): > 100 µM
TGI (HOP-62 NSCLC): > 100 µM
TGI (UACC-62 melanoma): > 100 µM
TGI (RXF 393 renal): 59.2 µM

O=C1CCC2COc3ccc(O)c1c32 (configuration not stated)
TGI (K-562 leukemia): > 100 µM
TGI (KM20L2 colon): > 100 µM
TGI (CCRF-CEM leukemia): > 100 µM
TGI (HOP-92 NSCLC): > 100 µM
TGI (SK-OV-3 ovarian): > 100 µM
TGI (M14 melanoma): > 100 µM
TGI (OVCAR-8 ovarian): > 100 µM
TGI (NCI-H23 lung): > 100 µM
TGI (RPMI-8226 leukemia): > 100 µM
TGI (EKVX NSCLC): > 100 µM
TGI (SNB-19 CNS): 95.9 µM
TGI (DMS 114 small cell lung): > 100 µM
TGI (UACC-62 melanoma): > 100 µM
TGI (RXF 393 renal): > 100 µM
TGI (A498 renal): > 100 µM

COc1nc(NC2OC(CO)C(O)C(O)C2O)c(N)c(=O)[nH]1 (configuration not stated)
TGI (SF-268 CNS): > 100 µM
TGI (K-562 leukemia): > 100 µM
TGI (KM20L2 colon): > 100 µM
TGI (CCRF-CEM leukemia): > 100 µM
TGI (HOP-92 NSCLC): > 100 µM
TGI (OVCAR-5 ovarian): > 100 µM
TGI (SK-OV-3 ovarian): > 100 µM
TGI (OVCAR-8 ovarian): > 100 µM
TGI (NCI-H23 lung): > 100 µM
TGI (MALME-3M melanoma): > 100 µM
TGI (RPMI-8226 leukemia): > 100 µM
TGI (EKVX NSCLC): > 100 µM
TGI (SNB-19 CNS): > 100 µM
TGI (SK-MEL-2 melanoma): > 100 µM
TGI (HOP-62 NSCLC): > 100 µM
TGI (DMS 114 small cell lung): > 100 µM
TGI (UACC-62 melanoma): > 100 µM
TGI (RXF 393 renal): > 100 µM
TGI (A498 renal): > 100 µM
